The text below walks through data of patent publication US9889150B2, “Agents for the prevention and/or treatment of central nervous system damage” (The University Of Liverpool, priority 2012, dated 2018).

Entries after “also recorded” stand apart in the source; their conditions may differ.

Experiment [1] has as its system T1, Factor Xa (Homo sapiens).
T1 construct: purchased Chromogenix
Description: Anti-factor Xa activity against PIMH standard, Coatest Heparin test kit. The note with it: compared with standard heparin (HEP1). It counts as biochemical. As for the experimental part: Anti Factor Xa activity can be measured against a PIMH standard of known activity (Sigma, UK) using a diagnostic grade Coatest Heparin test kit (Chromogenix, MA), adapted to a 96-well plate format, reading A405 (Polarstar plate reader (BMG LabTechnologies, U.K.))^17.
The anti-factor Xa activity was measured against a PIMH standard of known activity using a diagnostic grade Coatest Heparin test kit (Chromogenix, MA), adapted to a 96-well plate format, reading A405.

In another experiment the test system is OECs and astrocytes. The experiment can be described thus: OEC:astrocyte confrontation assay (boundary formation). It counts as cell-based, Sprague-Dawley rat. The note with it: modified heparins 10 μg/ml, 2 days of treatment. As for the experimental part: (§1) All primary neural cultures were generated from Sprague-Dawley rat pups of either sex. As described previously^10,37, purified type 1 astrocytes were prepared by digesting cortices (dissected from 1-day old Sprague Dawley (SD) rats) in 1.33% (w/v) collagenase (Sigma-Aldrich, Gillingham, UK), seeding (˜2×10^7 cells per 75 cm^2 flask) and culturing the cells in poly-L-lysine (PLL, 13.3 μg/ml, Sigma-Aldrich, Gillingham, UK) coated 75 cm2 flasks for 10-12 days. The cells were maintained in DMEM (Invitrogen, Paisley, Scotland) supplemented with 10% (v/v) foetal bovine serum (FBS) (Sigma-Aldrich, Gillingham, UK) and L-glutamine (2 mM, Sigma-Aldrich, Gillingham, UK) (DMEM-FBS). Confluent flasks were shaken on a rotary platform overnight at 37° C. to remove contaminating oligodendrocyte precursor cells. The remaining cells were 85-95% type 1 astrocytes as identified by labelling for glial fibrillary acidic protein (GFAP), an astrocyte cell specific marker.
OECs were isolated from the olfactory bulb of 7 day old SD rat pups and purified using magnetic nanoparticles (STEMCELL Technologies, UK) pre-bound with the p75^NTR antibody (mouse IgG1, Abcam, Cambridge, UK)^30. The cells were grown in low glucose DMEM with 5% (v/v) FBS and 2 mM L-glutamine and further supplemented with DMEM-BS (Bottenstein, 1979), FGF2 (25 ng/ml, Peprotech, London UK), heregulin β-1 (50 ng/ml, R&D Systems, Oxon, UK), forskolin (5×10^-7 M Sigma-Aldrich, Gillingham, UK) and astrocyte conditioned media (ACM) (1:5, fresh serum-free media taken after incubation with a confluent astrocyte monolayer for 48 h)^18, 37.
Confrontation assays were performed as described by Wilby et al. (1999) and Lakatos et al. (2000) with some modifications^10,48. Briefly, 70 μl containing 10,000 OECs or SCs were seeded into one well of a silicon Ibidi culture insert on a PLL-coated glass coverslip (Ibidi GmbH, Munich, Germany). Into the opposing, parallel well, 10,000 astrocytes were seeded. Cells were allowed to attach for 1 h before careful removal of the insert followed by a wash with DMEM-FBS to remove unattached cells. Cultures were maintained in DMEM-FBS and allowed to grow towards each other over a period of 5-7 days, allowing time for cells to make contact and interact^10. In some experiments, modified heparins or blocking antibodies were added to the cultures after the cells had contacted each other. Cultures were then immunolabelled using anti-GFAP for astrocytes (1:500; anti-rabbit (Dako, Ely, UK)) and anti-p75NTR for OECs and SCs (1:1; IgG1; hybridoma supernatant^49. Fluorescent images were captured using an Olympus BX51 fluorescent microscope and Image-Pro software. Using Adobe Photoshop Elements 7.0, a 300 μm line was drawn along the interface between astrocytes and either OECs or SCs. The numbers of OECs or SCs crossing the cell:cell boundary were counted and averaged over five randomly chosen fields. Experiments were repeated at least three times.
Modified heparins were produced semisynthetically by chemical modification (selective desulfation) of heparin as described in Example 1. These structurally distinct, model “HS-mimetic” polysaccharides^50 are useful tools for investigating structure-activity relationships of HS^15-17,31. Heparins were added to confrontation assays at 10 μg/ml at the stage when cells made contact (day 0) and treatment was repeated on day 2. Cultures were fixed and stained as described above on day 3. […]
Purified OECs were seeded at a density of 5000 cells/100 μl into one chamber of an Ibidi culture insert (Ibidi GmbH, Munich, Germany) sealed onto a PLL coated coverslip in a well of a 24-well plate. Cells were cultured in defined OEC medium for 24 h, after which, the medium was replaced with low serum (2% (v/v) FBS) OEC medium containing 1 μM siRNA. siRNA sequences were obtained from Dharmacon/Thermo Scientific (Sulf 1: E-093746-00-0005; Sulf2: E-093673-00-0005; non-targeting: D-001910-01-05; Thermo Fisher Scientific Inc, IL, USA). […]

Experiment [2] deals with normal human plasma. The experiment can be described thus: PT assay. The note with it: tested up to 100 ug/ml. It counts as biochemical. As for the experimental part:
(§2) APTT and PT assays were performed using a Axis Shield Thrombotrack 1 instrument using normal human plasma, Pathrombin SL reagent and Thromborel S (all from Axis Shield) reagents according to manufacturers instructions.
(§3) For all assays, heparins and polysaccharides were tested up to 100 ug/ml.

Another experiment has as its system SCs and astrocytes. The experiment can be described thus: SC:astrocyte confrontation assay (boundary formation). It counts as cell-based, Sprague-Dawley rat. The note with it: modified heparins 10 μg/ml, 2 days of treatment. As to the method:
as §1
SCs were purified using a modification of the method described by Brockes and colleagues^20. This modification involved treating the cultures with cytosine arabinoside (AraC, 10^−5 M, Sigma-Aldrich, Gillingham, UK), followed by incubation with anti-Thy1.1 antibody (1:1 supernatant, Sigma-Aldrich, Gillingham, UK) and rabbit complement (1:6, Harlan Laboratories Ltd., UK) to reduce contamination by fibroblasts^10. […]
Confrontation assays were performed as described by Wilby et al. (1999) and Lakatos et al. (2000) with some modifications^10,48. […] Cultures were then immunolabelled using anti-GFAP for astrocytes (1:500; anti-rabbit (Dako, Ely, UK)) and anti-p75NTR for OECs and SCs (1:1; IgG1; hybridoma supernatant^49. Fluorescent images were captured using an Olympus BX51 fluorescent microscope and Image-Pro software. Using Adobe Photoshop Elements 7.0, a 300 μm line was drawn along the interface between astrocytes and either OECs or SCs. The numbers of OECs or SCs crossing the cell:cell boundary were counted and averaged over five randomly chosen fields. Experiments were repeated at least three times. […]

The target in a further experiment is T2, Factor IIa (Homo sapiens, UniProt P00734+P01008).
T2 construct: Factor IIa (Sigma, 15 mU/ml final concentration); purchased Sigma (Factor IIa); American Diagnostica (antithrombin III)
Description: Factor IIa colorimetric substrate assay with antithrombin III. It counts as biochemical. The note with it: tested up to 100 ug/ml. As for the experimental part: (§4) Factor Xa and Factor II activity was measured using a colorimetric substrate assay as previously described^17. Briefly, in a 96 well ELISA plate, antithrombin III (American Diagnostica, 30 mIU/ml final concentration) was incubated with heparin or polysaccharide fractions in 0.9% NaCl at 37° C. for 2 minutes. Factor IIa (Sigma, 15 mU/ml final concentration) or Factor Xa (Thermo Scientific, 15 mU/ml final concentration) was added and the samples incubated for a further 1 minute at 37° C. Factor Xa Chromogenic substrate (Sigma, 240 uM final concentration) was added to the samples and incubated for 10 minutes at 37° C. The reaction was stopped with glacial acetic acid (Sigma, 25% final concentration). Colour change of the substrate was measured at 405 nm.
as §3

The test system of experiment [3] is normal human plasma. The experiment can be described thus: APTT assay. The format is biochemical. Particulars: tested up to 100 ug/ml. As to the method:
as §2, §3

Experiment [4] deals with T1, Factor Xa (Homo sapiens). Description: Factor Xa colorimetric substrate assay with antithrombin III. The format is biochemical. Particulars: tested up to 100 ug/ml. As for the experimental part:
as §4, §3

T1 sequence (P01008 33-464): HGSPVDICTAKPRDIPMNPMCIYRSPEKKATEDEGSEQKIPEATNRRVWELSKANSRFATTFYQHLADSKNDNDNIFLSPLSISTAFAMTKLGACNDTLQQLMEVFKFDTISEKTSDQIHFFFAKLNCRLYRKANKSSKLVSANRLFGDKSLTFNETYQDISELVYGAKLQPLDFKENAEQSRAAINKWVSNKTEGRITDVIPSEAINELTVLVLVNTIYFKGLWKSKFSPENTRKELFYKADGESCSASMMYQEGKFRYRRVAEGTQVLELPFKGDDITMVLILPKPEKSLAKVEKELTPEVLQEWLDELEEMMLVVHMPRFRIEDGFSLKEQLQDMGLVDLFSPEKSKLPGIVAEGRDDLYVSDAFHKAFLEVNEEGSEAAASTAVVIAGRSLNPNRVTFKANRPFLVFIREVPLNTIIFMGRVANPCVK

For 6-O-desulphated heparin [HEP4], in the experiment with Factor Xa (Homo sapiens) [1], the “Anticoagulant activity (anti-Xa activity)” value (“Anticoagulant activity” below) was determined as 0.5%. Moreover, the “boundary formation between OECs and astrocytes” value in the experiment on OECs and astrocytes (listed as Hep 4) was “lower boundary forming activity”; in the experiment on OECs and astrocytes (listed as Hep4), “induced boundaries between OECs and astrocytes”.
As to “6-O-desulphated, 2-O-desulphated heparin [HEP7]”, the “IC50 PT” value in the experiment with normal human plasma [2] is “NI (No inhibition of coagulation up to 100 ug/ml of compound)”. Besides, the “SCs mingling with astrocytes / boundary formation” value with SCs and astrocytes (listed as Hep 7) is given as “increased number of SCs mingling with astrocytes; also recorded: significantly increased cell mingling”. Moreover, the “IC50 Factor IIa” value at Factor IIa is on record as “NI (No inhibition of coagulation up to 100 ug/ml of compound)”. Moreover, in the experiment with normal human plasma [3], the “IC50 APTT” value is “NI (No inhibition of coagulation up to 100 ug/ml of compound)”. Moreover, the “Anticoagulant activity” value in the experiment with Factor Xa (Homo sapiens) [1] is 0.03%. Further, at Factor Xa (Homo sapiens) [4], the “IC50 Factor Xa” value is recorded as “NI (No inhibition of coagulation up to 100 ug/ml of compound)”. The “boundary formation between OECs and astrocytes” value is given as “do not promote boundary formation” with OECs and astrocytes (listed as Hep 7); “did not” in the experiment with OECs and astrocytes (listed as Hep7).
For “6-O-desulphated, 2-O-desulphated, N-acetylated heparin [HEP8]”, the “IC50 PT” value with normal human plasma [2] is recorded as “NI (No inhibition of coagulation up to 100 ug/ml of compound)”. Moreover, in the experiment with SCs and astrocytes (listed as Hep 8), the “SCs mingling with astrocytes / boundary formation” value is “increased number of SCs mingling with astrocytes; also recorded: significantly increased cell mingling”. Moreover, the “IC50 Factor IIa” value on Factor IIa was “NI (No inhibition of coagulation up to 100 ug/ml of compound)”. Also, the “IC50 APTT” value in the experiment with normal human plasma [3] is recorded as “NI (No inhibition of coagulation up to 100 ug/ml of compound)”. In addition, the “Anticoagulant activity” value with Factor Xa (Homo sapiens) [1] was determined as 0.03%. The “IC50 Factor Xa” value against Factor Xa (Homo sapiens) [4] is given as “NI (No inhibition of coagulation up to 100 ug/ml of compound)”. The “boundary formation between OECs and astrocytes” value is listed as “do not promote boundary formation” in the experiment with OECs and astrocytes (listed as Hep 8); “did not” with OECs and astrocytes (listed as Hep8).
As to “6-O-desulphated, N-acetylated heparin [HEP6]”, the “IC50 PT” value in the experiment with normal human plasma [2] is on record as “NI (No inhibition of coagulation up to 100 ug/ml of compound)”. Also, in the experiment with SCs and astrocytes (listed as Hep 6), the “SCs mingling with astrocytes / boundary formation” value is given as “increased number of SCs mingling with astrocytes; also recorded: significantly increased cell mingling”. In addition, on Factor IIa, the “IC50 Factor IIa” value is recorded as “NI (No inhibition of coagulation up to 100 ug/ml of compound)”. In addition, the “IC50 APTT” value in the experiment with normal human plasma [3] was “NI (No inhibition of coagulation up to 100 ug/ml of compound)”. The “Anticoagulant activity” value in the experiment with Factor Xa (Homo sapiens) [1] was found to be 0.03%. For the same substance, on Factor Xa (Homo sapiens) [4], the “IC50 Factor Xa” value is recorded as “NI (No inhibition of coagulation up to 100 ug/ml of compound)”. Besides, the “boundary formation between OECs and astrocytes” value in the experiment on OECs and astrocytes (listed as Hep 6) was “do not promote boundary formation”; in the experiment on OECs and astrocytes (listed as Hep6), “did not”.
Ido 2-de-O-sulphated heparin [HEP3]: in the experiment with Factor Xa (Homo sapiens) [1], the “Anticoagulant activity” value turned out to be 0.4%. For the same substance, the “boundary formation between OECs and astrocytes” value is “lower boundary forming activity” with OECs and astrocytes (listed as Hep 3); “induced boundaries between OECs and astrocytes” with OECs and astrocytes (listed as Hep3).
With “Ido 2-de-O-sulphated, N-acetylated heparin [HEP5]”, the “IC50 PT” value in the experiment with normal human plasma [2] was “NI (No inhibition of coagulation up to 100 ug/ml of compound)”. Besides, the “IC50 Factor IIa” value against Factor IIa was “NI (No inhibition of coagulation up to 100 ug/ml of compound)”. Moreover, the “IC50 APTT” value in the experiment with normal human plasma [3] is “NI (No inhibition of coagulation up to 100 ug/ml of compound)”. In addition, the “Anticoagulant activity” value in the experiment with Factor Xa (Homo sapiens) [1] was 0.03%. In addition, the “IC50 Factor Xa” value against Factor Xa (Homo sapiens) [4] is listed as “NI (No inhibition of coagulation up to 100 ug/ml of compound)”. For the same substance, the “boundary formation between OECs and astrocytes” value with OECs and astrocytes is reported as “did not”.
Take N-acetyl heparin [HEP2]: the “Anticoagulant activity” value in the experiment on Factor Xa (Homo sapiens) [1] is on record as 0.03%. Besides, the “boundary formation between OECs and astrocytes” value in the experiment on OECs and astrocytes (listed as Hep 2) is “induced significant boundary formation”; in the experiment on OECs and astrocytes (listed as Hep2), “induced boundaries between OECs and astrocytes”.
For the substance Per-sulphated heparin [HEP9], the “Anticoagulant activity” value in the experiment on Factor Xa (Homo sapiens) [1] was determined as 35.0%. Also, the “boundary formation between OECs and astrocytes” value with OECs and astrocytes (listed as Hep 9) was “induced the strongest boundaries”; in the experiment on OECs and astrocytes (listed as Hep9), “induced boundaries between OECs and astrocytes”.
